Laboratory results published in patent US7700272B2, “Polynucleotides encoding acetylcholine-gated chloride channel subunits of Caenorhabditis elegans” (priority 2004, dated 2010).
Several values for one entry are separate records, joined by “and”; a condition that tells them apart may be missing. Equal values may be shown once. Entries after “also recorded” stand apart in the source; their conditions may differ. Read-outs that look alike come from different tables or passages of the source.

Key:
[1] = system: ACC-2D6.3+ACC-3D10.5; assay type: cell-based, C. elegans; settings: 1 mM
Experimental: (§8) Oocytes were harvested from mature female Xenopus leavis according to standard procedures (Goldin, A. L. (1992) Maintenance of Xenopus laevis and oocyte injection. Methods Enzymol. 207: 266-79.). To remove inner ovarian epithelium, thecal cell layer, and follicular cells, the ovarian pieces were placed in OR-2 solution: 82.5 mM NaCl, 2 mM KCl, 1 mM MgCl2, and 5 mM Hepes (pH 7.5) containing 1 mg/ml type I collagenase (Sigma, St Louis Mo., USA) either for 3 hours at 20° C. with gentle agitation or for 1 hour followed by manual defolliculization. The stage VI defolliculated oocytes were placed in ND96 solution (96 mM NaCl, 2 mM KCl, 1.8 mM CaCl2, 1 mM MgCl2, and 5 mM Hepes, pH7.5). Oocytes were injected with 40 nl of cRNA using the Nanoject system (Drummond Scientific, Broomall, Pa., USA). Injected oocytes were incubated at 20° C. in ND96 supplemented with 100 mg/ml gentamycin and 550 mg/ml pyruvate. Oocytes were allowed to express cRNA for two days before measurements were taken.

[2] = system: ACC-2D6.3+ACC-4E9.9; assay type: cell-based, C. elegans; settings: 1 mM
Experimental: as §8

[3] = biological target: ACC-2D6.3 channel (Caenorhabditis elegans, UniProt Q18812); assay: cell-based
ACC-2D6.3 channel (Caenorhabditis elegans, UniProt Q18812), sequence (Q18812 whole entry, looked up): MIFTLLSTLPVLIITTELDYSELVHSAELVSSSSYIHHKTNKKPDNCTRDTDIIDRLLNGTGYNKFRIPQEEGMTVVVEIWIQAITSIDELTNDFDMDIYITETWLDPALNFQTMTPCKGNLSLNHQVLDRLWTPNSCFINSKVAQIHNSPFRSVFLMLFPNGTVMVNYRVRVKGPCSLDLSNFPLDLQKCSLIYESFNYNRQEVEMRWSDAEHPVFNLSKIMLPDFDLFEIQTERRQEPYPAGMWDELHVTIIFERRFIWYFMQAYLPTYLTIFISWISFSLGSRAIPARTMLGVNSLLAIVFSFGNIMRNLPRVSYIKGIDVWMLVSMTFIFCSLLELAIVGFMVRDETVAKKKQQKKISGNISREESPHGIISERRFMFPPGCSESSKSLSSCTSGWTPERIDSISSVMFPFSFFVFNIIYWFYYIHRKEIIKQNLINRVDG
From the text: (§1) For capped cRNA synthesis, cDNAs were subcloned into the pT7N vector, which contains a T7 RNA polymerase promoter, the 5′- and 3′-UTR of Xenopus laevis beta-globin, and an encoded poly(A+) tail (Cary R B, Klymkowsky M W, Evans R M, Domingo A, Dent J A, Backhus L E (1994) Vimentin's tail interacts with actin-containing structures in vivo. J Cell Sci 107:1609-1622.). The pT7NcDNA constructs were linearized with Sal I (ACC-2D6.3) or BamHI (ACC-1G6.4) and transcribed using the MEGAscript Kit (Ambion, Austin, Tex., USA). Synthesized cRNAs were recovered by LiCl precipitation and resuspended in nuclease-free H2O at final concentration of 1 microgram/ml.
(§2) Oocytes were harvested from mature female Xenopus leavis according to standard procedures (Goldin, A. L. (1992) Maintenance of Xenopus laevis and oocyte injection. Methods Enzymol. 207: 266-79.). To remove inner ovarian epithelium, thecal cell layer, and follicular cells, the ovarian pieces were placed in OR-2 solution: 82.5 mM NaCl, 2 mM KCl, 1 mM MgCl2, and 5 mM Hepes (pH 7.5) containing 1 mg/ml type I collagenase (Sigma, St Louis Mo., USA) either for 3 hours at 20° C. with gentle agitation or for 1 hour followed by manual defolliculization. The stage VI defolliculated oocytes were placed in ND96 solution (96 mM NaCl, 2 mM KCl, 1.8 mM CaCl2, 1 mM MgCl2, and 5 mM Hepes, pH7.5). Oocytes were injected with 40 nl of cRNA using the Nanoject system (Drummond Scientific, Broomall, Pa., USA). Injected oocytes were incubated at 20° C. in ND96 supplemented with […] gentamycin and […] pyruvate. Oocytes were allowed to express cRNA for two days before measurements were taken.
(§3) Two-electrode voltage-clamp recordings were performed using the AxoClamp 2B amplifier (Axon Instruments, Foster City, Calif., USA). Microelectrodes were pulled from borosilicate glass capillaries (Word Precision Instruments, Inc., Sarasota, Fla., USA) on the P-97 micropipette puller Sutter Instruments, Novato, Calif., USA). […] Each oocyte was placed in RC-12 recording chamber (Warner Instrument Inc., Hamden, Conn., USA) or a Maltese cross chamber (ALA Scientific Instruments, Westbury, N.Y., USA) and clamped at −80 mV. Data were acquired at 1 kHz using Clampex software (Axon Instruments, Foster City, Calif., USA).
(§4) Dose-response curves for agonists were generated by their applying the agonist in increasing concentrations followed by 3-9 min washes at each concentration. To determine EC50 and Hill coefficient agonist dose response curves were fit using the following equation: f(I)=(Imax[I]^n/(EC50^n+[I]^n))+Imin, where I is the normalized response to agonist at certain concentration, Imax is the maximal response elicited by a saturating concentration of agonist, EC50 is the concentration of agonist inducing half-maximal response, n is the Hill coefficient, and Imin is the normalized response at lowest agonist concentration.
(§5) The mean and standard error of the mean of peak current responses of at least three oocytes per experiment are represented.
(§6) All drugs were obtained from Sigma-Aldrich (St. Louis, Mo. USA) except imidicloprid (IMI) which was provided by Crompton Co. (Guelph, ON, Canada). Drugs were dissolved in ND96 except IMI, which was made as a stock solution in DMSO and diluted to working concentrations in ND96. If required, drug solutions were adjusted to pH 7.5 with either NaOH or HCl. Fresh solutions were prepared before measurements and stored at 4° C. for 1-5 days.

[4] = system: ACC-4E9.9; assay: Two-electrode voltage-clamp of Xenopus oocytes injected with ACC-4E9.9 cRNA; assay type: cell-based, C. elegans; settings: 1 mM
Experimental: as §8

[5] = system: ACC-3D10.5; assay: Two-electrode voltage-clamp of Xenopus oocytes injected with ACC-3D10.5 cRNA; assay type: cell-based, C. elegans; settings: 1 mM
Experimental: as §8

[6] = biological target: T1, ACC-1G6.4 channel (Caenorhabditis elegans, UniProt Q21005); assay: Two-electrode voltage-clamp of Xenopus oocytes expressing ACC-1G6.4 homomeric channel; assay type: cell-based, C. elegans; settings: for response (in words): 1 mM
T1 construct: Agonist: percentage of maximal acetylcholine-elicited response; other: compound at 0.1 mM; Agonist: percentage of maximal acetylcholine-elicited response; other: compound at 0.2 mM; other: compound at 0.4 mM; other: compound at 0.8 mM; Agonist: percentage of maxim
T1 sequence (Q21005 whole entry, looked up): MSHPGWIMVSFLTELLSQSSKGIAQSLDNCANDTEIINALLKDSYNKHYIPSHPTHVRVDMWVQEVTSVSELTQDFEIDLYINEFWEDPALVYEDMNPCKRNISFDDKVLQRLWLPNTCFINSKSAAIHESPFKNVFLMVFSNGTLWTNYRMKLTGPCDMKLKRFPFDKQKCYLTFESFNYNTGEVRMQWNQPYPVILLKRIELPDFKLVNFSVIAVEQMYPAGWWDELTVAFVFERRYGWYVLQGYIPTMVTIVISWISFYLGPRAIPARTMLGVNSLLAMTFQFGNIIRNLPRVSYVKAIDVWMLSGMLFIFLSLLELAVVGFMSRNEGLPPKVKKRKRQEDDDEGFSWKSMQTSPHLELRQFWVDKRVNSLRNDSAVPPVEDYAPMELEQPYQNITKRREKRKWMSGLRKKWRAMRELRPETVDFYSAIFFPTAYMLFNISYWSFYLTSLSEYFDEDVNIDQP
From the text: as §1, §2, §3, §4, §5, §6

[7] = system: T2, ACC-1G6.4 channel; assay: as above; assay type: cell-based, C. elegans; settings: one range given for both channels
T2 construct: rows headed: evoked current as % of the maximal ACh-elicited current; other: text; maximal magnitude of ACh-elicited inward current; other: −80 mV
From the text: as §1, §2, §3, §4, §5, §6

[8] = biological target: ACC-2 F160Y (Caenorhabditis elegans, UniProt Q18812, F160Y); assay: Voltage-clamp of Xenopus oocytes expressing ACC-2 mutant F160Y; assay type: cell-based, C. elegans
ACC-2 F160Y, sequence (Q18812 whole entry F160Y, looked up): as the sequence (Q18812 whole entry, looked up) above, with F160Y counted along it
Experimental: as §3, §4
(§7) These mutations are substitutions of Leu for Tyr at amino acid 100 (Y100L) and Tyr for Phe at amino acid 160 (F160Y).

[9] = biological target: ACC-2 Y100L (Caenorhabditis elegans, UniProt Q18812, Y100L); assay: Voltage-clamp of Xenopus oocytes expressing ACC-2 mutant Y100L; assay type: cell-based, C. elegans
ACC-2 Y100L, sequence (Q18812 whole entry Y100L, looked up): as the sequence (Q18812 whole entry, looked up) above, with Y100L counted along it
Experimental: as §3, §4, §7

[10] = system: ACC-2D6.3 channel; assay: cell-based
From the text: as §1, §2, §3, §4, §5, §6

[11] = biological target: rat α9nAChRs (Rattus norvegicus, UniProt P43144); settings: cited from earlier work
rat α9nAChRs, sequence (P43144 26-479): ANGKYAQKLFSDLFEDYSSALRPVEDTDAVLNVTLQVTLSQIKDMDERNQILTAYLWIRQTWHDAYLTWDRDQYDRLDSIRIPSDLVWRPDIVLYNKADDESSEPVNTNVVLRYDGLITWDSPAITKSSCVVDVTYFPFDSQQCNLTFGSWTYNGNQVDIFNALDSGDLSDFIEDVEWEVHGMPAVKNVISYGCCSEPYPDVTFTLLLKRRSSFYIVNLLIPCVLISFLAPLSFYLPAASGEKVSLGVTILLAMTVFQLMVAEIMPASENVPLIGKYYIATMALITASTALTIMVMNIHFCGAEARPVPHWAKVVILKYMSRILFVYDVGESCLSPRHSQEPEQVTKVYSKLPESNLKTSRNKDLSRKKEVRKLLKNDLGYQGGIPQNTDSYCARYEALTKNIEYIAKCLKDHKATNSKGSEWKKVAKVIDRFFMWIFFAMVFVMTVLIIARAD

[12] = system: Aplysia receptors mediating the slow desensitizing chloride-dependent response; settings: cited from earlier work; for EC50: read-out: EC50 (range)
[13] = read-out: Agonist: percentage of maximal acetylcholine-elicited response
[14] = EC50 (agonist), oocytes clamped at −80 mV, wild type
[15] = concentration tested in brackets where printed

NCCCC(=O)O [GABA]
response (in words) [1]: Neither did ACC-2D6.3+ACC-3D10.5 nor ACC-2D6.3+ACC-4E9.9 expressing oocytes respond | response (in words) [2]: Neither did ACC-2D6.3+ACC-3D10.5 nor ACC-2D6.3+ACC-4E9.9 expressing oocytes respond | response (in words) ([3]; 1 mM): did not respond | response (in words) [4]: did not respond | response (in words) [5]: did not respond | response (in words) [6]: did not respond

NCCc1c[nH]c2ccc(O)cc12 [serotonin]
response (in words) [1]: Neither did ACC-2D6.3+ACC-3D10.5 nor ACC-2D6.3+ACC-4E9.9 expressing oocytes respond | response (in words) [2]: Neither did ACC-2D6.3+ACC-3D10.5 nor ACC-2D6.3+ACC-4E9.9 expressing oocytes respond | current response ([3]; 1 mM): 10-30 nA | Agonist: percentage of maximal acetylcholine-elicited response ([3]; compound at 1 mM): 3.7 ± 0.4% | response (in words) [4]: not observed | response (in words) [5]: not observed | response (in words) [6]: not observed | activation at 1000 µM [6, 13]: 0%

COC(=O)C1=CCCN(C)C1 [arecoline]
evoked current as % of the maximal ACh-elicited current [3]: 82-89% | EC50 [3, 14]: 754 ± 22 µM | estimated Hill coefficient (agonist) ([3]; agonist dose-response): 2.66±0.23 | antagonist action (in words) [3, 15]: did not inhibit the ACh response | evoked current as % of the maximal ACh-elicited current [7]: 82-89% | estimated Hill coefficient (agonist) ([6]; agonist dose-response): 1.59±0.09 | agonist action (in words) [6, 15]: agonists; also recorded: strong agonist; also recorded: strongly | antagonist action (in words) [6, 15]: did not inhibit the ACh response | EC50 ([6]; oocytes clamped at −80 mV, read-out: EC50 (agonist)): 4.7 ± 0.11 µM

CC(=O)OCC[N+](C)(C)C [ACh, acetylcholine]
current response [1]: 50-60 nA | response (in words) [2]: did not respond | estimated Hill coefficient (agonist) [3]: 2.64±0.08 | EC50 [3, 14]: 9.54 ± 0.11 µM | EC50 ([3]; EC50, Table 4): 9.5 µM | response (in words) [4]: no response | current response [5]: 10-30 nA | EC50 [8]: 44 ± 1.8 µM | EC50 [9]: 351 ± 33 µM

O=c1cccc2n1C[C@@H]1CNC[C@H]2C1 [cytisine]
concentrations at which channels responded [10]: 800 to 1000 µM | Agonist: percentage of maximal acetylcholine-elicited response [3]: 15.5 ± 2.9% | EC50 [3]: ~1000 µM | IC50 [3]: ~100 µM | IC50 [11]: 43.1 µM | agonist action (in words) [11]: no agonistic activity | antagonist action (in words) [11]: Antagonist | agonist action (in words) [12]: Weak partial agonist | estimated relative effectiveness versus acetylcholine [12]: ~0.14 | EC50 [12]: ~100 µM | Antagonist: percentage decrease in a response to acetylcholine [6]: 66.8 ± 3% and 95 ± 1.4% | IC50 [6]: ~10 µM | agonist action (in words) [6]: weak agonists and/or antagonists; also recorded: no agonistic activity | antagonist action (in words) [6]: only as an antagonist | activation at 800 µM [6, 13]: 0%

CN1CCCC1c1cccnc1 (stereo not drawn) [nicotine]
concentrations at which channels responded [10]: 800 to 1000 µM | EC50 [3]: ~1000 µM | antagonist action (in words) [3]: no antagonistic | agonist action (in words) [11]: no agonistic activity | antagonist action (in words) [11]: Antagonist | EC50 ([12]; Table 4, order of magnitude): ~100 µM | agonist action (in words) [12]: Weak partial agonist | EC50 [6]: ~1000 µM | IC50 [6]: ~100 µM | agonist action (in words) [6]: weak agonists and/or antagonists; also recorded: very weak agonist; also recorded: poorly; also recorded: Weak partial agonist | antagonist action (in words) [6]: partial antagonist | activation at 100 µM [6, 13]: 5.2 ± 1.2% | activation at 1000 µM [6, 13]: 12 ± 2.7%

N[C@@H](CCC(=O)O)C(=O)O [glutamate]
response (in words) [1]: Neither did ACC-2D6.3+ACC-3D10.5 nor ACC-2D6.3+ACC-4E9.9 expressing oocytes respond | response (in words) [2]: Neither did ACC-2D6.3+ACC-3D10.5 nor ACC-2D6.3+ACC-4E9.9 expressing oocytes respond | response (in words) ([3]; 1 mM): did not respond | response (in words) [4]: did not respond | response (in words) [5]: did not respond | response (in words) [6]: did not respond
